According to patent publication US11584740B2 (priority 2017, dated 2023):

Assays:
[1] = test system: Botryotinia fuckeliana (Botrytis cinerea); test: Botryotinia fuckeliana (Botrytis cinerea) / liquid culture (gray mould); type: cell-based; conditions: 20 ppm; compared to untreated control; inhibition of growth determined photometrically 3-4 days after application, 24° C.
Experimental: Botryotinia fuckeliana (Botrytis cinerea)/Liquid Culture (Gray Mould)
Conidia of the fungus from cryogenic storage are directly mixed into nutrient broth (Vogels broth). After placing a (DMSO) solution of test compound into a microtiter plate (96-well format), the nutrient broth containing the fungal spores is added. The test plates are incubated at 24° C. and the inhibition of growth is determined photometrically 3-4 days after application.

[2] = test system: Glomerella lagenarium (Colletotrichum lagenarium); test: Glomerella lagenarium (Colletotrichum lagenarium) / liquid culture (anthracnose); type: cell-based; conditions: 20 ppm; compared to untreated control; inhibition of growth measured photometrically 3-4 days after application, 24° C.
Experimental: Glomerella Lagenarium (Colletotrichum lagenarium)/Liquid Culture (Anthracnose)
Conidia of the fungus from cryogenic storage are directly mixed into nutrient broth (PDB potato dextrose broth). After placing a (DMSO) solution of test compound into a microtiter plate (96-well format), the nutrient broth containing the fungal spores is added. The test plates are incubated at 24° C. and the inhibition of growth is measured photometrically 3-4 days after application.

Fusarium culmorum = type: cell-based; conditions: 20 ppm; compared to untreated control; inhibition of growth determined photometrically 3-4 days after application, 24° C.
Gaeumannomyces graminis = Gaeumannomyces graminis / liquid culture (take-all of cereals); type: cell-based; conditions: 20 ppm; compared to untreated control; inhibition of growth determined photometrically 4-5 days after application, 24° C.
Experimental: Gaeumannomyces graminis/Liquid Culture (Take-all of Cereals)
Mycelial fragments of the fungus from cryogenic storage were directly mixed into nutrient broth (PDB potato dextrose broth). After placing a (DMSO) solution of test compound into a microtiter plate (96-well format), the nutrient broth containing the fungal spores iss added. The test plates are incubated at 24° C. and the inhibition of growth is determined photometrically 4-5 days after application.

[3] = test system: Monographella nivalis (Microdochium nivale); test: Monographella nivalis (Microdochium nivale) / liquid culture (foot rot cereals); type: cell-based; conditions: 20 ppm; compared to untreated control; inhibition of growth determined photometrically 4-5 days after application, 24° C.
Experimental: Monographella nivalis (Microdochium nivale)/Liquid Culture (Foot Rot Cereals)
Conidia of the fungus from cryogenic storage are directly mixed into nutrient broth (PDB potato dextrose broth). After placing a (DMSO) solution of test compound into a microtiter plate (96-well format), the nutrient broth containing the fungal spores is added. The test plates are incubated at 24° C. and the inhibition of growth is determined photometrically 4-5 days after application.

[4] = test system: Magnaporthe grisea (Pyricularia oryzae); type: cell-based; conditions: 20 ppm; compared to untreated control; inhibition of growth determined photometrically 3-4 days after application, 24° C.

## CC(C)CC(C)(Cc1ccc(Cl)s1)C(=O)Nc1cnc2c(F)cccc2c1 (stereo not shown) [Compound E1, 2-[(5-chloro-2-thienyl)methyl]-N-(8-fluoro-3-quinolyl)-2,4-dimethyl-pentanamide]
[1]
  control of Botryotinia fuckeliana: at least 80%
[2]
  control of Glomerella lagenarium: at least 80%
Fusarium culmorum
  control of Fusarium culmorum: at least 80%
Gaeumannomyces graminis
  control of Gaeumannomyces graminis: at least 80%
[3]
  control of Monographella nivalis: at least 80%
[4]
  control of Magnaporthe grisea: at least 80%
other
  melting point: 142 to 145 °C
